Laboratory results published in ChEMBL document CHEMBL5154747, “Discovery of new carbonic anhydrase IX inhibitors as anticancer agents by toning the hydrophobic and hydrophilic rims of the active site to encounter the dual-tail approach” (Eur J Med Chem, 2022).

Test system: U-251
Assay: Anticancer activity against human U-251 cells assessed as cell growth inhibition at 10 uM incubated for 48 hrs by SRB assay relative to control
Format: functional
Conditions: read-out: GI

Row | Compound | inhibition of growth at 10 µM
1 | NS(=O)(=O)c1ccc(Nc2nc(N/N=C/c3cccc4ccccc34)nc(Nc3ccccc3)n2)cc1 | 33%

Test system: LOX IMVI
Assay: Anticancer activity against human LOX IMVI cells assessed as cell growth inhibition at 10 uM incubated for 48 hrs by SRB assay relative to control
Format: functional
Conditions: read-out: GI

Row | Compound | inhibition of growth at 10 µM
2 | NS(=O)(=O)c1ccc(Nc2nc(N/N=C/c3cccc4ccccc34)nc(Nc3ccccc3)n2)cc1 | 44%

Test system: Malme-3M
Assay: Anticancer activity against human Malme-3M cells assessed as cell growth inhibition at 10 uM incubated for 48 hrs by SRB assay relative to control
Format: functional
Conditions: read-out: GI

Row | Compound | inhibition of growth at 10 µM
3 | NS(=O)(=O)c1ccc(Nc2nc(N/N=C/c3cccc4ccccc34)nc(Nc3ccccc3)n2)cc1 | 19%

Test system: SK-MEL-28
Assay: Anticancer activity against human SK-MEL-28 cells assessed as cell growth inhibition at 10 uM incubated for 48 hrs by SRB assay relative to control
Format: functional
Conditions: read-out: GI

Row | Compound | inhibition of growth at 10 µM
4 | NS(=O)(=O)c1ccc(Nc2nc(N/N=C/c3cccc4ccccc34)nc(Nc3ccccc3)n2)cc1 | 20%

Test system: SK-MEL-5
Assay: Anticancer activity against human SK-MEL-5 cells assessed as cell growth inhibition at 10 uM incubated for 48 hrs by SRB assay relative to control
Format: functional
Conditions: read-out: GI

Row | Compound | inhibition of growth at 10 µM
5 | NS(=O)(=O)c1ccc(Nc2nc(N/N=C/c3cccc4ccccc34)nc(Nc3ccccc3)n2)cc1 | 29%

Test system: UACC-62
Assay: Anticancer activity against human UACC-62 cells assessed as cell growth inhibition at 10 uM incubated for 48 hrs by SRB assay relative to control
Format: functional
Conditions: read-out: GI

Row | Compound | inhibition of growth at 10 µM
6 | NS(=O)(=O)c1ccc(Nc2nc(N/N=C/c3cccc4ccccc34)nc(Nc3ccccc3)n2)cc1 | 18%

Test system: IGROV-1
Assay: Anticancer activity against human IGROV-1 cells assessed as cell growth inhibition at 10 uM incubated for 48 hrs by SRB assay relative to control
Format: functional
Conditions: read-out: GI

Row | Compound | inhibition of growth at 10 µM
7 | NS(=O)(=O)c1ccc(Nc2nc(N/N=C/c3cccc4ccccc34)nc(Nc3ccccc3)n2)cc1 | 26%

Test system: OVCAR-3
Assay: Anticancer activity against human OVCAR-3 cells assessed as cell growth inhibition at 10 uM incubated for 48 hrs by SRB assay relative to control
Format: functional
Conditions: read-out: GI

Row | Compound | inhibition of growth at 10 µM
8 | NS(=O)(=O)c1ccc(Nc2nc(N/N=C/c3cccc4ccccc34)nc(Nc3ccccc3)n2)cc1 | 23%

Test system: OVCAR-5
Assay: Anticancer activity against human OVCAR-5 cells assessed as cell growth inhibition at 10 uM incubated for 48 hrs by SRB assay relative to control
Format: functional
Conditions: read-out: GI

Row | Compound | inhibition of growth at 10 µM
9 | NS(=O)(=O)c1ccc(Nc2nc(N/N=C/c3cccc4ccccc34)nc(Nc3ccccc3)n2)cc1 | < 10%

Test system: OVCAR-8
Assay: Anticancer activity against human OVCAR-8 cells assessed as cell growth inhibition at 10 uM incubated for 48 hrs by SRB assay relative to control
Format: functional
Conditions: read-out: GI

Row | Compound | inhibition of growth at 10 µM
10 | NS(=O)(=O)c1ccc(Nc2nc(N/N=C/c3cccc4ccccc34)nc(Nc3ccccc3)n2)cc1 | 40%

Test system: SK-OV-3
Assay: Anticancer activity against human SK-OV-3 cells assessed as cell growth inhibition at 10 uM incubated for 48 hrs by SRB assay relative to control
Format: functional
Conditions: read-out: GI

Row | Compound | inhibition of growth at 10 µM
11 | NS(=O)(=O)c1ccc(Nc2nc(N/N=C/c3cccc4ccccc34)nc(Nc3ccccc3)n2)cc1 | < 10%

Test system: 786-0
Assay: Anticancer activity against human 786-0 cells assessed as cell growth inhibition at 10 uM incubated for 48 hrs by SRB assay relative to control
Format: functional
Conditions: read-out: GI

Row | Compound | inhibition of growth at 10 µM
12 | NS(=O)(=O)c1ccc(Nc2nc(N/N=C/c3cccc4ccccc34)nc(Nc3ccccc3)n2)cc1 | 56%

Test system: ACHN
Assay: Anticancer activity against human ACHN cells assessed as cell growth inhibition at 10 uM incubated for 48 hrs by SRB assay relative to control
Format: functional
Conditions: read-out: GI

Row | Compound | inhibition of growth at 10 µM
13 | NS(=O)(=O)c1ccc(Nc2nc(N/N=C/c3cccc4ccccc34)nc(Nc3ccccc3)n2)cc1 | 18%

Test system: CAKI-1
Assay: Anticancer activity against human CAKI-1 cells assessed as cell growth inhibition at 10 uM incubated for 48 hrs by SRB assay relative to control
Format: functional
Conditions: read-out: GI

Row | Compound | inhibition of growth at 10 µM
14 | NS(=O)(=O)c1ccc(Nc2nc(N/N=C/c3cccc4ccccc34)nc(Nc3ccccc3)n2)cc1 | 23%

Test system: RXF 393
Assay: Anticancer activity against human RXF 393 cells assessed as cell growth inhibition at 10 uM incubated for 48 hrs by SRB assay relative to control
Format: functional
Conditions: read-out: GI

Row | Compound | inhibition of growth at 10 µM
15 | NS(=O)(=O)c1ccc(Nc2nc(N/N=C/c3cccc4ccccc34)nc(Nc3ccccc3)n2)cc1 | 64%

Test system: SN12C
Assay: Anticancer activity against human SN12C cells assessed as cell growth inhibition at 10 uM incubated for 48 hrs by SRB assay relative to control
Format: functional
Conditions: read-out: GI

Row | Compound | inhibition of growth at 10 µM
16 | NS(=O)(=O)c1ccc(Nc2nc(N/N=C/c3cccc4ccccc34)nc(Nc3ccccc3)n2)cc1 | 12%

Test system: UO-31
Assay: Anticancer activity against human UO-31 cells assessed as cell growth inhibition at 10 uM incubated for 48 hrs by SRB assay relative to control
Format: functional
Conditions: read-out: GI

Row | Compound | inhibition of growth at 10 µM
17 | NS(=O)(=O)c1ccc(Nc2nc(N/N=C/c3cccc4ccccc34)nc(Nc3ccccc3)n2)cc1 | 18%

Test system: Hs-578T
Assay: Anticancer activity against human Hs-578T cells assessed as cell growth inhibition at 10 uM incubated for 48 hrs by SRB assay relative to control
Format: functional
Conditions: read-out: GI

Row | Compound | inhibition of growth at 10 µM
18 | NS(=O)(=O)c1ccc(Nc2nc(N/N=C/c3cccc4ccccc34)nc(Nc3ccccc3)n2)cc1 | 11%

Test system: T47D
Assay: Anticancer activity against human T47D cells assessed as cell growth inhibition at 10 uM incubated for 48 hrs by SRB assay relative to control
Format: functional
Conditions: read-out: GI

Row | Compound | inhibition of growth at 10 µM
19 | NS(=O)(=O)c1ccc(Nc2nc(N/N=C/c3cccc4ccccc34)nc(Nc3ccccc3)n2)cc1 | 55%

Test system: MDA-MB-468
Assay: Anticancer activity against human MDA-MB-468 cells assessed as cell growth inhibition at 10 uM incubated for 48 hrs by SRB assay relative to control
Format: functional
Conditions: read-out: GI

Row | Compound | inhibition of growth at 10 µM
20 | NS(=O)(=O)c1ccc(Nc2nc(N/N=C/c3cccc4ccccc34)nc(Nc3ccccc3)n2)cc1 | < 10%
